Key:
[1] = Rheological characteristics of the oil based mud (Fann SR 12/Model 35 rheometer); assay type: physicochemical; details: 2.5 g additive in oil based mud, measuring temp. 50° C.
Protocol: (§1) An oil based well treatment fluid was prepared as follows: the indicated amounts of the following ingredients are mixed using a Silverson Mixer (model L4RT) in the following order: synthetic paraffin, filtration control agent (a polymer: preferably Adapta by Halliburton), Ca(OH)2, Amidoamin (Terradril EM 1122), Water, CaCl2*2H2O, BaSO4, ball clay.
(§2) Next, either an ester of the invention (for example azelaic ricinoleate or an ester based on a C21 dimer acid and ricinoleic acid) or a conventional viscosifier (C36 dimer acid) is added to the mixture and to obtain the final emulsion a standard Hamilton Beach mixer was used, following manufacturer's instructions.
(§3) Next, the rheological characteristics including the fluids-plastic viscosity (PV), yield point (YP) and gel strength (gels 10″/10′) after 10 seconds and 10 minutes were determined with a Fann SR 12/Model 35 rheometer (Fann). In addition to the rheological characteristics, the electrical stability was tested using a Model 23D Electrical Stability Tester, following manufacturer's instructions, in accordance with API recommended practice 13B-2, December 1991.
(§4) The well treatment fluid was also tested in a Roller Oven for the indicated times at the indicated temperatures (after hot rolling=AHR and before hot rolling=BHR as indicated in the Table). As roller oven, a Baroid Laboratory Roller Oven was used, following manufacturer's instructions.

[2] = Electrical stability of the oil based mud (Model 23D Electrical Stability Tester, API 13B-2); assay type: physicochemical; details: 2.5 g additive in oil based mud, measuring temp. 50° C.
Protocol: as §1, §2, §3, §4

[3] = test system: seawater bacteria; assay: Inhibition to seawater bacteria (Marine BODIS test); details: natural seawater
Protocol: This method uses natural seawater (salinity 34%-37%) with added mineral nutrients (8.5 g/l KH2PO4, 21.7 g/l K2HPO4, 29.92 g/l Na2HPO4.2H2O, 0.5 g/l NH4Cl, 31.84 CaCl2, 22.5 g/l MgSO4.7H2O, 0.25 g/l FeCl3.6H2O, 0.4 g/l EDTA) and no inoculum was added in addition to the microorganisms already present in the seawater. The test vessels were closed glass bottles with a known volume of aqueous test mixture (66.6%) and air (33.3%). They were shaken continuously to assure steady state oxygen partitioning between the aqueous and gaseous phase. The degradation was followed by weekly measurements of the biochemical oxygen demand (BOD) in the aqueous phase for a 28-day period. The test vessels were re-aerated and resealed after measurement. The total oxygen uptake in the test flasks was calculated from the measured oxygen concentration divided by the saturation value at normal conditions and multiplied with the total oxygen content originally present in the aqueous and gaseous phases.
Three replicates were used for each test condition: test substance, controls, and insoluble reference substance. The total oxygen capacity of each test vessel was 26.64 mg oxygen. […]

[4] = AHR 16 h (System 4: 15 h) at 150 °F
[5] = AHR (after hot rolling) 16 h (System 4: 15 h) at 150 °F

Compound | 3 rpm [1, 4] | 6 rpm [1, 4] | 100 rpm [1, 4] | 200 rpm [1, 4] | 300 rpm [1, 4] | 600 rpm [1, 4] | Gels 10′ (gel strength after 10 minutes) [1, 4] | Gels 10″ (gel strength after 10 seconds) [1, 4] | PV (plastic viscosity) [1, 4] | YP (yield point) [1, 4] | 3 rpm ([1]; BHR) | 6 rpm ([1]; BHR) | 100 rpm ([1]; BHR) | 200 rpm ([1]; BHR) | 300 rpm ([1]; BHR) | 600 rpm ([1]; BHR) | Gels 10′ (gel strength after 10 minutes) ([1]; BHR) | Gels 10″ (gel strength after 10 seconds) ([1]; BHR) | PV (plastic viscosity) ([1]; BHR) | YP (yield point) ([1]; BHR) | also measured
CCCCCCC(CC=CCCCCCCCC(=O)O)OC(=O)CCCCCCCC(=O)O (stereo not shown) [Azelaic ricinoleate, azelaic ricinoleate] | 24 skt | 24 skt | 30 skt | 37 skt | 44 skt | 59 skt | 25 lb/100 ft^2 | 22 lb/100 ft^2 | 15 cP | 29 lb/100 ft^2 | 25 skt | 25 skt | 31 skt | 38 skt | 44 skt | 59 skt | 25 lb/100 ft^2 | 20 lb/100 ft^2 | 15 cP | 29 lb/100 ft^2 | Electrical stab. [2, 5]: 802 V; Electrical stab. ([2]; BHR (before hot rolling)): 760 V; inhibition to seawater bacteria [3]: −14%
C36 dimer acid | 10 skt | 12 skt | 23 skt | 29 skt | 35 skt | 49 skt | 15 lb/100 ft^2 | 11 lb/100 ft^2 | 14 cP | 21 lb/100 ft^2 | 15 skt | 15 skt | 25 skt | 32 skt | 39 skt | 52 skt | 19 lb/100 ft^2 | 16 lb/100 ft^2 | 13 cP | 26 lb/100 ft^2 | Electrical stab. [2, 5]: 830 V; Electrical stab. ([2]; BHR (before hot rolling)): 795 V; inhibition to seawater bacteria [3]: −1%

— patent US10253236B2, “Environmental friendly well treatment fluids comprising an ester” (AMRIL AG, priority 2013, dated 2019)
